Entries after “also recorded” stand apart in the source; their conditions may differ.
What was measured:
[1] = tested on: IL-1β-induced release of GFP+ EVs into plasma; experiment: EV release in vivo, IL-1β mouse model of acute brain injury; conditions: P18 3 and 10 mg/kg DPTIP equivalent PO 30 min before intrastriatal IL-1β; 4 h
Description: We have previously reported that nSMase2 regulates the secretion of extracellular vesicles from astrocytes in response to a focal inflammatory brain lesion. Rojas et al., 2018. Striatal injection of IL-1β in mice expressing GFAP-EGFP in astroglia evokes the release of GFP-labelled EVs that rapidly enter into plasma and target multiple organ systems. Dickens et al., 2017. We used this mouse model to evaluate the ability of P18 to inhibit EV release by the inhibition of nSMase2 activity in vivo. […] Interleukin-1β-injected mice, orally pre-dosed with P18 (30 min prior) were euthanized 4-hours post-IL-1β injection. GFP labeled (GFP+) EVs were quantified in plasma and nSMase2 activity was measured in the brain striata.
Striatal injections and EV measurements were performed as previously described by our group. Dickens et al., 2017; Mccluskey et al., 2008. […] Mice subjected to intrastriatal injection of IL-1β were also injected with the NSAID carprofen (rimadyl, 5 mg/kg. i.p.) and closely monitored during recovery; no adverse reactions were observed. […] Quantitation of Plasma EVs: Dynabeads M-450) Epoxy (Invitrogen) were coupled with anti-GFP antibody (Thermo Fisher) at a ratio of 200-μg antibody per 4×10^8 beads. […] The concentration of immunoprecipitated GFP+ EVs was quantified using ZetaView nanoparticle tracking analysis (Particle Metrix) and corresponding ZetaView software (8.05.14.SP7). […]

[2] = single time-point (2 h) oral pharmacokinetic screening in mice; type: in vivo, mouse; conditions: single time point PK, oral 10 mg/kg DPTIP equivalent
Description: All PK studies in mice were conducted according to protocols approved by the Animal Care and Use Committee at Johns Hopkins University. Male CD-1 mice between 25 and 30 g were obtained from Harlan and maintained on a 12 h light-dark cycle with ad libitum access to food and water. […] All of the formulations were freshly prepared prior to the dosing. The mice were sacrificed at specified time points (either 2 h or 0.25, 0.5, 1, 2, 4, 6, and 8 h) post drug administration. For the collection of plasma and brain tissue, animals were euthanized with CO2, and blood samples were collected in heparinized microtubes by cardiac puncture. Brains were dissected and immediately flash frozen (−80° C.) Blood samples were spun at 2000 g for 15 min, and plasma was removed and stored at −80° C. until LC-MS/MS analysis. Prior to extraction, frozen samples were thawed on ice.
Brain tissues were diluted 1:5 w/v with acetonitrile containing losartan (0.5 μm) and homogenized, followed by vortex-mixing and centrifugation at 10,000 g for 10 min at 4° C. […] Plasma concentrations (nmol/ml) as well as brain tissue concentrations (nmol/g) were determined and plots of mean plasma concentration versus time were constructed. Non-compartmental analysis modules in Phoenix WinNonlin version 7.0 (Certara USA, Inc., Princeton, NJ) were used to quantify exposures (AUC0-t).

**Q.** Which “IL-1β-induced release of GFP+ EVs into plasma” value [1] does the source give for `CCC1CC(N2CCCCC2)CC(CC)N1C(=O)Oc1c(OC)cc(-c2nc(-c3ccccc3)c(-c3cccs3)[nH]2)cc1OC` (centres unmarked) [Compound P18, 2,6-Dimethoxy-4-(5-phenyl-4-(thiophen-2-yl)-1H-imidazol-2-yl)phenyl 2′,6′-diethyl-[1,4′-bipiperidine]-1′-carboxylate] here?
**A.** The value was “significantly inhibited IL-1β-induced EV release into plasma; also recorded: inhibited the release of brain derived GFP+ EVs into blood at both 3 and 10 mg/kg; also recorded: significant inhibition”.

**Q.** And the “improvement of brain and plasma levels of DPTIP and/or its brain penetration index compared with DPTIP” value [2]?
**A.** Its value is “highest improvement”.

Source: patent US20240287108A1, “nSMASE2 INHIBITOR PRODRUGS WITH ENHANCED ORAL AND BRAIN EXPOSURES” (The Johns Hopkins University, priority 2021, published 2024)
